The source of these data is patent US20240368135A1 (VERTEX PHARMACEUTICALS INCORPORATED, priority 2021, published 2024).

One may read the IC50 as the concentration that inhibits the measured activity by half.

Chain of human NaV 1.8 (Q9Y5Y9 126-399 limits assumed): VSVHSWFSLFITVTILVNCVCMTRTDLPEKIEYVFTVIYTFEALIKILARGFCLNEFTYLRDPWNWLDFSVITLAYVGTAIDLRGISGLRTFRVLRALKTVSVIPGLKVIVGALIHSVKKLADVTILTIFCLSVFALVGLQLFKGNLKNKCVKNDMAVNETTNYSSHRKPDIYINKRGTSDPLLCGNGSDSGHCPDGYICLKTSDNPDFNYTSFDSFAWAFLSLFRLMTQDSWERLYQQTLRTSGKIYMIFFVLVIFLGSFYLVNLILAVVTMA
Chain of human NaV 1.8 (Q9Y5Y9 660-890 limits assumed): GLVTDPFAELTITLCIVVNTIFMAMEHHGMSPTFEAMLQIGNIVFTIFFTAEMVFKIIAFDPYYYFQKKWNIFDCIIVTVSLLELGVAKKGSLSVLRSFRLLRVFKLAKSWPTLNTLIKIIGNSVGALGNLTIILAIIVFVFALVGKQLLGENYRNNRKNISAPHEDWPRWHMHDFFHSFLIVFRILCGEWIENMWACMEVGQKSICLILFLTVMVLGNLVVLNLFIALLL
Chain of human NaV 1.8 (Q9Y5Y9 1148-1722 limits assumed): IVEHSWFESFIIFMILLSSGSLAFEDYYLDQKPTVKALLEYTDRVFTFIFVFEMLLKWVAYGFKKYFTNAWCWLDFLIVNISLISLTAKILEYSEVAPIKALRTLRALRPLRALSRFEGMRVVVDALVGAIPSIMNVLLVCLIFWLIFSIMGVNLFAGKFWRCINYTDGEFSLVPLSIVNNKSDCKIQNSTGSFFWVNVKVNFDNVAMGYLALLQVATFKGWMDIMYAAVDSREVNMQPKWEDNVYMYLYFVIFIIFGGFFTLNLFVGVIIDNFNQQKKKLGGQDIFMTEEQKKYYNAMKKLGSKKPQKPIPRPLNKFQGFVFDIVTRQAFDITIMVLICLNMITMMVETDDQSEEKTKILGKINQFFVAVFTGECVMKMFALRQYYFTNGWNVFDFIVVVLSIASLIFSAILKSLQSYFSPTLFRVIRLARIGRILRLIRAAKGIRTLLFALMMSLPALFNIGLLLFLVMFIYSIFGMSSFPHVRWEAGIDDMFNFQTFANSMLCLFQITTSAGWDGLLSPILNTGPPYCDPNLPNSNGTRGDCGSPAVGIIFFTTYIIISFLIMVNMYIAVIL

The target of the first assay is human NaV 1.8 (Homo sapiens, UniProt Q9Y5Y9). The assay is described as follows: E-VIPR assay detecting and measuring NaV inhibition properties. In kind it is cell-based. The conditions noted are these: HEK cells expressing truncated human NaV 1.8; in the presence of human serum (compound numbers followed by *); read-out: IC50 in the E-VIPR Assay, performed in the presence of human serum. A digest of the protocol:
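HEK cells expressing truncated, fully active human NaV1.8, with KIR2.1 BacMam co-transduction, were loaded with CC2-DMPE/DiSBAC6(3) voltage-sensing dyes for 20 min at room temperature. Compounds were tested in 11-point 3-fold dilutions (300 nM top final), optionally with 25% human serum, under electrical stimulation with FRET read-out.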
On to `COc1c(C2C(C(=O)Nc3ccnc(C(O)C(C)O)c3)OC(C)(C(F)(F)F)C2C)ccc(F)c1C` (single isomer, unassigned) [Compound 143], for which the IC50 was at least 1000 nM. On the same count and under the same terms, in the case of `COc1c(C2C(C(=O)Nc3ccnc(C(O)C(C)O)c3)OC(C)(C(F)(F)F)C2C)ccc(F)c1C` (single isomer, unassigned) [Compound 148] it was under 10 nM; in that of `COc1c(C2C(C(=O)Nc3ccn(C)c(=O)c3)OC(C)(C(F)(F)F)C2C)ccc(F)c1F` (single isomer, unassigned) [Compound 27, 3-(3,4-difluoro-2-methoxy-phenyl)-4,5-dimethyl-N-(1-methyl-2-oxo-4-pyridyl)-5-(trifluoromethyl)tetrahydrofuran-2-carboxamide], at least 1000 nM.

The same assay, now with this note: HEK cells expressing truncated human NaV 1.8; no human serum; read-out: IC50 in the E-VIPR Assay.
In the case of `COc1c([C@H]2[C@H](C(=O)Nc3ccnc(-n4ccnc4C)c3)O[C@@](C)(C(F)(F)F)[C@H]2C)ccc(F)c1F` [Compound 316, (2R,3S,4S,5R)-3-(3,4-difluoro-2-methoxyphenyl)-4,5-dimethyl-N-(2-(2-methyl-1H-imidazol-1-yl)pyridin-4-yl)-5-(trifluoromethyl)-tetrahydrofuran-2-carboxamide], the IC50 is under 10 nM. The same measure, in the same setting: in the case of `C[C@H]1[C@@H](c2ccc(F)c(F)c2)[C@H](C(=O)Nc2ccnc(S(C)(=O)=O)c2)O[C@@]1(C)C(F)(F)F` (stereo in doubt) [Compound 155, rel-(2R,3S,4S,5R)-3-(3,4-difluorophenyl)-4,5-dimethyl-N-(2-(methylsulfonyl)pyridin-4-yl)-5-(trifluoromethyl)tetrahydrofuran-2-carboxamide] it was 10 to 100 nM; in that of `C[C@H]1[C@@H](c2ccc(F)c(F)c2OC(F)F)[C@H](C(=O)Nc2ccnc(N3CCNCC3=O)c2)O[C@@]1(C)C(F)(F)F` [Compound 514, (2R,3S,4S,5R)-3-(2-(difluoromethoxy)-3,4-difluorophenyl)-4,5-dimethyl-N-(2-(2-oxopiperazin-1-yl)pyridin-4-yl)-5-(trifluoromethyl)tetrahydrofuran-2-carboxamide], 10 to 100 nM. Consider `COCCCOc1c([C@H]2[C@H](C(=O)Nc3ccnc(CO)c3)O[C@@](C)(C(F)(F)F)[C@H]2C)ccc(F)c1F` [Compound 642, (2R,3S,4S,5R)-3-(3,4-difluoro-2-(3-methoxypropoxy)phenyl)-N-(2-(hydroxymethyl)pyridin-4-yl)-4,5-dimethyl-5-(trifluoromethyl)tetrahydrofuran-2-carboxamide], for which the 50% inhibitory concentration (IC50) is under 10 nM. Still for that read-out and setting: the value for `COc1c([C@H]2[C@H](C(=O)Nc3ccnc(S(=O)(=O)N(C)C)c3)O[C@@](C)(C(F)(F)F)[C@H]2C)ccc(F)c1F` (stereo in doubt) [Compound 449, rel-(2R,3S,4S,5R)-3-(3,4-difluoro-2-methoxyphenyl)-N-(2-(N,N-dimethylsulfamoyl)pyridin-4-yl)-4,5-dimethyl-5-(trifluoromethyl)tetrahydrofuran-2-carboxamide] was under 10 nM; that for `COc1c([C@H]2[C@H](C(=O)Nc3ccnc(CCO)c3)O[C@@](C)(C(F)(F)F)[C@H]2C)ccc(F)c1F` [Compound 385, (2R,3S,4S,5R)-3-(3,4-difluoro-2-methoxyphenyl)-N-(2-(2-hydroxyethyl)pyridin-4-yl)-4,5-dimethyl-5-(trifluoromethyl)tetrahydrofuran-2-carboxamide] was under 10 nM. Same read-out and setting: the value for `COc1c([C@@H]2[C@@H](C(=O)Nc3ccc(C(N)=O)nc3)O[C@](C)(C(F)(F)F)[C@@H]2C)ccc(F)c1C(F)F` (stereo in doubt) [Compound 169, rel-5-((2S,3R,4R,5S)-3-(3-(difluoromethyl)-4-fluoro-2-methoxyphenyl)-4,5-dimethyl-5-(trifluoromethyl)tetrahydrofuran-2-carboxamido)picolinamide] was at least 1000 nM. On the same count and under the same terms, the value for `COc1c([C@H]2[C@H](C(=O)Nc3ccc(CCS(C)(=O)=O)nc3)O[C@@](C)(C(F)(F)F)[C@H]2C)ccc(F)c1F` [Compound 194, (2R,3S,4S,5R)-3-(3,4-difluoro-2-methoxyphenyl)-4,5-dimethyl-N-(6-(2-(methylsuflonyl)ethyl)pyridin-3-yl)-5-(trifluoromethyl)tetrahydrofuran-2-carboxamide] was 10 to 100 nM.

On to `Cc1nocc1NC(=O)[C@@H]1O[C@@](C)(C(F)(F)F)[C@@H](C)[C@H]1c1ccc(F)c(F)c1OCCN[C@@H]1CCOC1` [Compound 632, (2R,3S,4S,5R)-3-(3,4-difluoro-2-(2-(((R)-tetrahydrofuran-3-yl)amino)ethoxy)phenyl)-4,5-dimethyl-N-(3-methylisoxazol-4-yl)-5-(trifluoromethyl)tetrahydrofuran-2-carboxamide], for which the IC50 lay in the range of 10 to 100 nM. Still for that read-out and setting: in the case of `COc1c([C@H]2[C@H](C(=O)Nc3ccc4nc(C(N)=O)nn4c3)O[C@@](C)(C(F)(F)F)[C@H]2C)ccc(F)c1F` [Compound 16] it was 10 to 100 nM.

In the case of `COCCNCc1cc(NC(=O)C2OC(C)(C(F)(F)F)C(C)C2c2ccc(F)c(F)c2OC)ccn1` (centres unmarked) [Compound 60, 3-(3,4-difluoro-2-methoxy-phenyl)-N-[2-[(2-methoxyethylamino)methyl]-4-pyridyl]-4,5-dimethyl-5-(trifluoromethyl)tetrahydrofuran-2-carboxamide], the IC50 was under 10 nM. Still for that read-out and setting: the value for `COc1c([C@H]2[C@H](C(=O)Nc3ccnc([S+](C)[O-])c3)O[C@@](C)(C(F)(F)F)[C@H]2C)ccc(F)c1F` (single isomer, unassigned) [Compound 8] was under 10 nM; that for `Cc1nn(C(F)F)cc1NC(=O)[C@@H]1O[C@@](C)(C(F)(F)F)[C@@H](C)[C@H]1c1ccc(F)c(F)c1OC1CC(O)C1` (stereo partly drawn) [Compound 600, (2R,3S,4S,5R)-3-[3,4-difluoro-2-(3-hydroxycyclobutoxy)phenyl]-N-[1-(difluoromethyl)-3-methyl-pyrazol-4-yl]-4,5-dimethyl-5-(trifluoromethyl)tetrahydrofuran-2-carboxamide] was 10 to 100 nM. For `COc1c([C@H]2[C@H](C(=O)Nc3ccnc(C(C)(O)CO)c3)OC(C)(C)[C@H]2C)ccc(F)c1F` (single isomer, unassigned) [Compound 732], the IC50 was 10 to 100 nM. The same measure, in the same setting: the value for `COc1c([C@H]2[C@H](C(=O)NCCN3CCNC(=O)C3)O[C@@](C)(C(F)(F)F)[C@H]2C)ccc(F)c1F` [Compound 302, (2R,3S,4S,5R)-3-(3,4-difluoro-2-methoxyphenyl)-4,5-dimethyl-N-(2-(3-oxopiperazin-1-yl)ethyl)-5-(trifluoromethyl)tetrahydrofuran-2-carboxamide] was at least 1000 nM; that for `Cc1nocc1NC(=O)[C@@H]1O[C@@](C)(C(F)(F)F)[C@@H](C)[C@H]1c1ccc(F)c(F)c1OCCN1CCOCC1` [Compound 586, (2R,3S,4S,5R)-3-(3,4-difluoro-2-(2-morpholinoethoxy)phenyl)-4,5-dimethyl-N-(3-methylisoxazol-4-yl)-5-(trifluoromethyl)tetrahydrofuran-2-carboxamide] was 10 to 100 nM.

`COc1c([C@H]2[C@H](C(=O)Nc3ccnc(CN[C@@H]4CCOC4)c3)O[C@@](C)(C(F)(F)F)[C@H]2C)ccc(F)c1F` [Compound 23]: the IC50 was under 10 nM. Still for that read-out and setting: in the case of `C[C@H]1[C@@H](c2ccc(F)c(F)c2OCC2COC2)[C@H](C(=O)Nc2ccc3cnnn3c2)O[C@@]1(C)C(F)(F)F` [Compound 621, (2R,3S,4S,5R)-3-[3,4-difluoro-2-(oxetan-3-ylmethoxy)phenyl]-4,5-dimethyl-N-(triazolo[1,5-a]pyridin-6-yl)-5-(trifluoromethyl)tetrahydrofuran-2-carboxamide] it was under 10 nM.

In the case of `COc1c([C@@H]2C[C@](C)(C(F)(F)F)O[C@H]2C(=O)Nc2cn(S(C)(=O)=O)nc2C)ccc(F)c1F` (stereo in doubt) [Compound 684, rel-(2R,3S,5R)-3-(3,4-difluoro-2-methoxyphenyl)-5-methyl-N-(3-methyl-1-(methylsulfonyl)-1H-pyrazol-4-yl)-5-(trifluoromethyl)tetrahydrofuran-2-carboxamide], the half-maximal inhibitory concentration (IC50) is under 10 nM. Take `COc1c([C@H]2[C@H](C(=O)Nc3ccc(-c4nc(C)no4)nc3)O[C@@](C)(C(F)(F)F)[C@H]2C)ccc(F)c1F` [Compound 393, (2R,3S,4S,5R)-3-(3,4-difluoro-2-methoxyphenyl)-4,5-dimethyl-N-(6-(3-methyl-1,2,4-oxadiazol-5-yl)pyridin-3-yl)-5-(trifluoromethyl)-tetrahydrofuran-2-carboxamide]: the 50% inhibitory concentration (IC50) fell in the range of 100 to 1000 nM. The same measure, in the same setting: the value for `COCCOc1c([C@H]2[C@H](C(=O)Nc3ccc(=O)n(C)c3)O[C@@](C)(C(F)(F)F)[C@H]2C)ccc(F)c1F` [Compound 584, (2R,3S,4S,5R)-3-(3,4-difluoro-2-(2-methoxyethoxy)phenyl)-4,5-dimethyl-N-(1-methyl-6-oxo-1,6-dihydropyridin-3-yl)-5-(trifluoromethyl)tetrahydrofuran-2-carboxamide] was under 10 nM. The same measure, in the same setting: in the case of `C[C@H]1[C@@H](c2ccc(F)c(F)c2O[C@H]2C[C@@H](O)C2)[C@H](C(=O)Nc2ccc(C(N)=O)nc2)O[C@@]1(C)C(F)(F)F` [Compound 655, 5-((2R,3S,4S,5R)-3-(3,4-difluoro-2-((1S,3R)-3-hydroxycyclobutoxy)phenyl)-4,5-dimethyl-5-(trifluoromethyl)tetrahydrofuran-2-carboxamido)picolinamide] it was 10 to 100 nM; in that of `COc1c([C@H]2[C@H](C(=O)Nc3ccnc(N4C[C@@H]5CC[C@H](C4=O)N5C)c3)O[C@@](C)(C(F)(F)F)[C@H]2C)ccc(F)c1F` (single isomer, unassigned) [Compound 504, rel-(2R*,3S*,4S*,5R*)-3-(3,4-difluoro-2-methoxyphenyl)-4,5-dimethyl-N-(2-((1R,5S)-8-methyl-2-oxo-3,8-diazabicyclo[3.2.1]octan-3-yl)pyridin-4-yl)-5-(trifluoromethyl)tetrahydrofuran-2-carboxamide], 10 to 100 nM.
